Assay results taken from US20060166182A1, “Tissue and organ preservation, protection and resuscitation” (The Board of Trustees of the University of Ilinois a body …, priority 2002, published 2006).

Test system: dogs
Test: Myocardial tissue oxygen pressure and pH during cardiac (ventricular) fibrillation in bupivacaine and sham treated dogs
Format: in vivo, dog
Experimental: Non-purpose bred male hounds (22-26 kg) were used. Dogs were fasted overnight. On the day of the example, the dog was anesthetized with 5 mg/kg propofol, intubated and ventilated with 1.5% isoflurane and inspired oxygen concentration of 30%. Catheters were inserted into the femoral artery for blood pressure recording and blood gas sampling, and the femoral vein for fluid and drug administration. Sterile saline was infused intravenously (4 ml·kg^−1·hr^−1) for fluid maintenance.
An incision was made along the left 5th intercostal space and the left ventricle exposed. A Paratrend tissue probe (Codman Inc, Newark, N.J.) was calibrated on the day of the study using precision gases. The probe was 0.5 mm in diameter and 2 sensors measuring myocardial tissue oxygen pressure (PmO2) and myocardial pH (pHm) were contained in the final 2 cm. The void surrounding the pHm sensor was filled with acrylamide gel containing phenol red. Changes in hydrogen ion concentration produce color changes in phenol red, which can be detected by the pH fiber optic sensor. A fluorescence method was used to measure the partial pressure of dissolved or gaseous oxygen for the fiber optic PmO2 sensor. The 0%-90% response times for the PmO2 and pHm sensors were 78 s and 70 s, respectively. The probe was inserted into the myocardium in the region between the first and second diagonal branch of the left anterior descending coronary artery, parallel to the surface of the heart 6 mm below the surface using an 18 gauge angiocatheter as an introducer. Mechanical ventilation was adjusted to maintain arterial pCO2 at 35±2 mmHg and inspired oxygen concentration was maintained at 30%, with the balance nitrogen. Body temperature was maintained at 38° C. using a warming pad.
After equilibration of the myocardial tissue probe for 45 minutes, baseline measures of mean arterial pressure (MAP), heart rate, pmO2 and pHm were recorded and an arterial blood gas sample was measured. Each dog received an intravenous infusion of 10 mg/kg bupivacaine over 10 seconds. […] In a preliminary study (early lipid, EL), intervention at the onset of circulatory collapse included an intravenous infusion of either soy lipid emulsion (Intralipid 20%, Fresenius Kabi Clayton, Clayton, N.C.) n=3, or saline, n=3, each administered as a 4 ml/kg bolus (over 2 minutes), followed by a continuous infusion of 0.5 ml·kg^−1·min^−1 for 10 minutes. The protocol was subsequently modified to better simulate a clinical setting, where the start of the infusion might be delayed by several minutes. In this protocol (delayed lipid, DL), internal cardiac massage alone was continued for 10 minutes, then infusion of either the lipid emulsion (n=6) or saline (n=6) was begun as described above. If sinus rhythm returned, internal cardiac massage was continued until MAP reached 30 mmHg and recovery measures of pmO2 and pHm were recorded when blood pressure returned to within 10% of baseline levels. Dogs were killed at the end of the study using a euthanasia solution. The investigators were not blinded to treatment arm.
Data are reported for the DL experiments as mean±SD. pmO2 and pHm were compared between baseline and subsequent treatments within each group using repeated measures analysis of variance with Tukey's tests for post-hoc comparisons. Differences between groups for each treatment were compared by Student's t-test. The proportion of animals surviving bupivacaine challenge in each group was compared in the DL experiment using a z-test. Significance was taken as p<0.05.
There were no significant differences between groups. […] Tissue pH decreased a similar amount in half the time in sham treated dogs, and the rate of pH decrease was greater in these dogs compared to bupivacaine treated dogs.
In four dogs per group, PmO2 and pHm were allowed to decrease for 15 minutes of cardiac fibrillation at the end of the study.

[1] = dogs made hypotensive by treatment with bupivacaine
[2] = during cardiac fibrillation, mean ± SD
[3] = during cardiac fibrillation, mean ± SD, P < 0.05 compared to sham

## CCCCN1CCCCC1C(=O)Nc1c(C)cccc1C (stereo not drawn) [Bupivacaine, bupivacaine]
15 minutes of cardiac fibrillation at the end of the study, four dogs per group, FIG. 1
  rate of decrease in pHm, increase in PmCO2 and decrease in PmO2 compared to sham: rate of decrease in pHm and increase in PmCO2 was faster in sham treated dogs, but the rate of decrease in PmO2 was slower compared to bupivacaine treated dogs
Dogs made hypotensive by bupivacaine, prolonged hypotension, hypoperfusion and cardiac tissue hypoxia
  acidosis in myocardial tissue: do not develop the expected acidosis in myocardial tissue
[1]
  cardiac tissue pO2 (intramyocardial probe): undetectable
  systemic blood pressure (BP) after bupivacaine: < 40 mmHg
[2]
  PH decrease (myocardial tissue): 0.31 ± 0.08
  PmO2 decrease: 52 ± 16 mmHg
  Rate of decrease (PmO2): 22 ± 5 mmHg/min
  Time (of PmO2 decrease): 2.5 ± 0.9 min
[3]
  Rate of Decrease (myocardial pH): 0.02 ± 0.01 min − 1
  Time (of pH decrease): 13.8 ± 5.1 min
Ventricular fibrillation, Table 2 experiment
  rate of decrease in PmO2 compared to sham treated dogs: higher rate in bupivacaine treated compared to sham treated dogs, but this difference was not significant
Ventricular fibrillation, versus sham
  factor by which the rate of decrease in pH during fibrillation was reduced: four
